The data set can be described thus: in vitro. The conditions noted are these: rat, gh3-tre-luc cells.

Where a name gives a salt, the structure may show the parent alone. Some results are limits rather than exact numbers.

The CC50 is the concentration at which the toxic effect on the cells reaches its halfway point. A low value points to greater toxicity to the cells. `CO[C@H]1C[C@H](O[C@H]2[C@H](C)[C@@H](O[C@@H]3O[C@H](C)C[C@H](N(C)C)[C@H]3OC(C)=O)[C@@H](C)C[C@@]3(CO3)C(=O)[C@H](C)[C@@H](OC(C)=O)[C@@H](C)[C@@H](C)OC(=O)[C@@H]2C)O[C@@H](C)[C@@H]1OC(C)=O` [Troleandomycin] had a CC50 at 24 h (AC50 (uM) modified / 1000) above 20 µM. With `O=CNC(N1CCN(C(NC=O)C(Cl)(Cl)Cl)CC1)C(Cl)(Cl)Cl` (stereo not shown) [Triforine], the CC50 at 24 h (AC50 (uM) modified / 1000) was above 90 µM. For `C[C@H]1[C@H](c2ccc(Cl)cc2)SC(=O)N1C(=O)NC1CCCCC1` [Hexythiazox], for the setting “AC50 (uM) modified / 1000, Tox21_110001=Tox21_301050, viability, 1 nM T3 present, 24 h”, the CC50 at 24 h turned out to be 67.8 µM. Regarding `CCc1cccc2c3c([nH]c12)C(CC)(CC(=O)O)OCC3` (stereo not shown) [Etodolac], under “AC50 (uM) modified / 1000”, the CC50 at 24 h is above 90 µM. The same measure, in the same setting: the value for `CN(C)CCN(C)CCO` [2-{[2-(Dimethylamino)ethyl](methyl)amino}ethanol] was above 90 µM; that for `COc1ccc(C(=O)Nc2ccccc2CCC2CCCCN2C)cc1` (stereo not shown) [Encainide hydrochloride] was above 50 µM. For `Cc1nc2n(c(=O)c1CCN1CCC(c3noc4cc(F)ccc34)CC1)CCCC2` [Risperidone], the CC50 at 24 h (AC50 (uM) modified / 1000) is above 50 µM. Regarding `Nc1ccc(C(=O)O)cc1` [4-Aminobenzoic acid], the CC50 at 24 h (AC50 (uM) modified / 1000) was above 90 µM. Still for that read-out and setting: as for `C=CC(=O)OCCn1c(=O)n(CCOC(=O)C=C)c(=O)n(CCOC(=O)C=C)c1=O` [(2,4,6-Trioxo-1,3,5-triazinane-1,3,5-triyl)triethane-2,1-diyl trisprop-2-enoate], the figure is 4.99 µM; as for `O=C1Nc2ccc([N+](=O)[O-])cc2C1=O` [5-Nitroisatin], above 90 µM. `FC(F)OC(F)(F)C(F)Cl` (stereo not shown) [Enflurane]: the CC50 at 24 h (AC50 (uM) modified / 1000, Tox21_110001=Tox21_112426, viability, 1 nM T3 present, 24 h) is above 50 µM and the 50% cytotoxic concentration (CC50) at 24 h (AC50 (uM) modified / 1000, Tox21_110001=Tox21_200166, viability, 1 nM T3 present, 24 h) is above 90 µM. With `BrCC(Br)C1CCC(Br)C(Br)C1` (stereo not shown) [1,2-Dibromo-4-(1,2-dibromoethyl)cyclohexane], the midpoint of cytotoxicity (AC50 (uM) modified / 1000), the CC50 at 24 h, lay at 55.8 µM. `CCCCOCC1CO1` (stereo not shown) [Butyl glycidyl ether] displayed a CC50 at 24 h (AC50 (uM) modified / 1000) above 90 µM. On the same count and under the same terms, the value for `CC(C)OC(=S)S` [Proxan-sodium] was above 90 µM; that for `CC(C)CCCC(C)CC=O` (stereo not shown) [3,7-Dimethyloctanal] was above 90 µM; that for `Cc1cc(C)cc(N)c1` [3,5-Dimethylaniline] was above 90 µM. The same measure, in the same setting: as for `CCOC(=O)[C@H](CCc1ccccc1)N[C@@H](C)C(=O)N1[C@H](C(=O)O)C[C@H]2CCCC[C@@H]21` [Trandolapril], the figure is above 50 µM; as for `C1COCCN1` [Morpholine], above 100 µM; as for `COc1cccc(-c2ccc(/C=C\CN3CCCCCC3)cc2Cl)c1` [SR125047], 17.7 µM. Same read-out and setting: as for `C[C@]12CCC(=O)C=C1CC[C@H]1[C@@H]3CC[C@](O)(C(=O)CO)[C@@]3(C)C[C@H](O)[C@@]12F` [Fludrocortisone], the figure is above 50 µM; as for `OCCO` [Ethylene glycol], above 100 µM; as for `CCCCOC(=O)c1ccc(O)cc1` [Butylparaben], above 50 µM. `Cc1ccc(C(C)C)cc1` [p-Cymene] had a cytotoxic concentration (CC50) at 24 h (AC50 (uM) modified / 1000) above 90 µM. Same read-out and setting: as for `NNc1nc(-c2ccc([N+](=O)[O-])cc2)cs1` [2-Hydrazino-4-(4-nitrophenyl)thiazole], the figure is 58.8 µM. Under “AC50 (uM) modified / 1000, Tox21_110001=Tox21_200260, viability, 1 nM T3 present, 24 h”, `Cc1ccc2cc(C)ccc2c1` [2,6-Dimethylnaphthalene] displayed a cytotoxic concentration (CC50) at 24 h above 90 µM. Take `CCCCOC(=O)C(=O)Nc1cccc(-c2nnn[nH]2)c1` [Tazanolast]: the CC50 at 24 h (AC50 (uM) modified / 1000) was above 50 µM. Compound `O=c1c(O)c(-c2ccc(O)cc2O)oc2cc(O)cc(O)c12` [Morin hydrate] yielded a CC50 at 24 h (AC50 (uM) modified / 1000) above 90 µM. On the same count and under the same terms, the value for `C[N+]12CCC(CC1)C(OC(=O)C(O)(c1ccccc1)c1ccccc1)C2` (stereo not shown) [Clidinium bromide] was above 20 µM; that for `CC(C)(C)CC(C)(C)c1ccc(Nc2ccc(C(C)(C)CC(C)(C)C)cc2)cc1` [4,4'-bis(1,1,3,3-Tetramethylbutyl)diphenylamine] was above 5 µM; that for `C/C=C1/C(=O)C[C@H]2[C@@H]3CCC4=CC(=O)CC[C@]4(C)[C@H]3CC[C@]12C` [Guggulsterone E] was above 90 µM. Compound `FC(F)(F)c1ccccc1Cl` [2-Chlorobenzotrifluoride] yielded a CC50 at 24 h (AC50 (uM) modified / 1000) above 90 µM. Still for that read-out and setting: the value for `CC(=O)[C@@]1(O)CC[C@H]2[C@@H]3C=C(Cl)C4=CC(=O)CC[C@]4(C)[C@H]3CC[C@@]21C` [Chlormadinone] was above 50 µM. Where the note is “AC50 (uM) modified / 1000”, `CN1C(=O)/C(=N\NC(N)=S)c2ccccc21` [Methisazone] came in with a CC50 at 24 h of 34.2 µM. Same read-out and setting: the value for `CC(Oc1ccccc1)C(=O)N[C@@H]1C(=O)N2[C@@H]1SC(C)(C)[C@@H]2C(=O)O` (stereo partly shown) [Phenethicillin potassium] was above 20 µM; that for `CCCCCCCCCCCCCCCC[N+](C)(C)CCN(Cc1ccc(OC)cc1)c1ncccn1` [Thonzonium bromide] was 14.6 µM. Still for that read-out and setting: as for `Nc1cc(Cl)c(O)c(Cl)c1` [4-Amino-2,6-dichlorophenol], the figure is 83.2 µM; as for `NCc1cccc(C2CCN(C(=O)c3ccc(C#Cc4ccccc4F)o3)CC2)c1` [AVE5638], 6.44 µM; as for `NC(=S)NS(=O)(=O)c1ccc(N)cc1` [Sulfathiourea], above 50 µM.

Compound `O=C(O)CNCC(=O)O` [Iminodiacetic acid] yielded a CC50 at 24 h (AC50 (uM) modified / 1000) above 5 µM. The same measure, in the same setting: the value for `CCc1cccc(C)c1N(C(=O)CCl)C(C)COC` (stereo not shown) [Metolachlor] was above 90 µM. Still for that read-out and setting: the value for `COCC(=O)O[C@]1(CCN(C)CCCc2nc3ccccc3[nH]2)CCc2cc(F)ccc2[C@@H]1C(C)C` [Mibefradil dihydrochloride] was 1.9 µM; that for `O=C(OCC(COC(=O)c1cccnc1)(COC(=O)c1cccnc1)COC(=O)c1cccnc1)c1cccnc1` [Niceritrol] was above 50 µM.

Compound `N=C(N)NC(=O)c1nc(Cl)c(N)nc1N` [Amiloride hydrochloride] gave a CC50 at 24 h (AC50 (uM) modified / 1000) above 90 µM. Still for that read-out and setting: as for `Cc1ccc2c(C)cccc2c1` [1,6-Dimethylnaphthalene], the figure is above 90 µM; as for `Nc1ccccc1[N+](=O)[O-]` [2-Nitroaniline], above 90 µM; as for `COc1ccc2c(c1)c(CC(=O)O)c(C)n2C(=O)c1ccc(Cl)cc1` [Indomethacin], above 90 µM. Still for that read-out and setting: as for `CO[Si](CCCCl)(OC)OC` [(3-Chloropropyl)trimethoxysilane], the figure is above 90 µM; as for `CNC(=S)N(C)C` [1,1,3-Trimethyl-2-thiourea], above 90 µM; as for `CS(=O)(=O)c1ccc([C@@H](O)[C@@H](COC(=O)CN)NC(=O)C(Cl)Cl)cc1` [Thiamphenicol glycinate hydrochloride], above 50 µM. `O=C1C=CC(=O)N1c1ccc(Cc2ccc(N3C(=O)C=CC3=O)cc2)cc1` [Bismaleimide] showed a 50% cytotoxic concentration (CC50) at 24 h (AC50 (uM) modified / 1000) of 6.41 µM. On the same count and under the same terms, the value for `CC1(C)C2C(=O)CCC(C)(C)[C@]23CC[C@H]1C3` (stereo partly shown) [Isolongifolanone] was above 90 µM; that for `CC(C)(C)c1nnc(NS(=O)(=O)c2ccccc2)s1` [Glybuzole] was above 50 µM. Same read-out and setting: as for `CC(C)CN(C[C@@H](O)[C@H](Cc1ccccc1)NC(=O)O[C@H]1CCOC1)S(=O)(=O)c1ccc(N)cc1` [Amprenavir], the figure is above 50 µM; as for `CCCCCCCC(=O)OCC(COC(=O)CCCCCCC)OC(=O)CCCCCCC` [Tricaprylin], above 90 µM; as for `Cc1ccc(NC(=O)N(C)C)cc1NC(=O)N(C)C` [3,3'-(4-Methylbenzene-1,3-diyl)bis(1,1-dimethylurea)], above 90 µM.

In the case of `CC[C@@]1(O)C(=O)OCc2c1cc1n(c2=O)Cc2cc3c([N+](=O)[O-])cccc3nc2-1` [Rubitecan], the cytotoxic concentration (CC50) at 24 h (AC50 (uM) modified / 1000) is 1.34 µM.

`NS(=O)(=O)c1cc2c(cc1C(F)(F)F)NCNS2(=O)=O` [Hydroflumethiazide] came in with a cytotoxic concentration (CC50) at 24 h (AC50 (uM) modified / 1000) above 20 µM.

As for `C[C@H]1O[C@@H](O[C@H]2[C@@H](O)C[C@H](O[C@H]3[C@@H](O)C[C@H](O[C@H]4CC[C@@]5(C)[C@H](CC[C@@H]6[C@@H]5C[C@@H](O)[C@]5(C)[C@@H](C7=CC(=O)OC7)CC[C@]65O)C4)O[C@@H]3C)O[C@@H]2C)C[C@H](O)[C@@H]1O` [Digoxin], the CC50 at 24 h (AC50 (uM) modified / 1000) is above 90 µM. Still for that read-out and setting: the value for `CC(=O)N[C@@H](CCC(=O)O)C(=O)O` [N-Acetyl-L-glutamic acid] was above 50 µM; that for `CCCC1C(=O)N2C(N(C)C)=Nc3ccc(C)cc3N2C1=O` (stereo not shown) [Azapropazone] was above 20 µM. Still for that read-out and setting: the value for `NCC1(CC(=O)O)CCCCC1` [Gabapentin] was above 20 µM. Still for that read-out and setting: the value for `C=CCN1CCCC1CNC(=O)c1cc(S(N)(=O)=O)cc(OC)c1OC` (stereo not shown) [Veralipride] was above 50 µM; that for `C(=C(c1ccccc1)c1ccccc1)c1ccccc1` [Triphenylethylene] was above 90 µM. Consider `Cc1c(Cl)cccc1[N+](=O)[O-]` [1-Chloro-2-methyl-3-nitrobenzene], for which the CC50 at 24 h (AC50 (uM) modified / 1000) was above 90 µM.

In turn, `CNC(=O)OCC[N+](C)(C)C` [Methylcarbamylcholine chloride] gave a CC50 at 24 h (AC50 (uM) modified / 1000, Tox21_110001=Tox21_111257, viability, 1 nM T3 present, 24 h) above 50 µM. Turning to `O=C(O)CCCOc1ccc(Cl)cc1Cl` [2,4-DB-sodium], for the setting “AC50 (uM) modified / 1000”, the CC50 at 24 h is above 90 µM. Still for that read-out and setting: the value for `NCCCN(CCO)CCO` [2,2'-[(3-Aminopropyl)imino]diethanol] was above 90 µM; that for `Cc1ccc(C(C)C)cc2c(C)ccc1-2` [Guaiazulene] was above 50 µM. On the same count and under the same terms, as for `CCC(=O)c1ccc2c(c1)N(CCCN1CCN(CCO)CC1)c1ccccc1S2` [Carphenazine dimaleate], the figure is 6.82 µM. Same read-out and setting: the value for `COc1cnc(NS(=O)(=O)c2ccc(N)cc2)nc1` [Sulfameter] was above 20 µM. For `Nc1cccc2c(=O)[nH][nH]c(=O)c12` [Luminol], under “AC50 (uM) modified / 1000”, the half-maximal cytotoxic concentration (CC50) at 24 h is above 90 µM. Same read-out and setting: the value for `CC(C)C(C)(C)C(C)(C)C(C)(C)S` [tert-Dodecanethiol] was above 90 µM.

Values taken from article PMC6792352, “Limited Chemical Structural Diversity Found to Modulate Thyroid Hormone Receptor in the Tox21 Chemical Library” (Environmental Health Perspectives, 2019).
